Where two headings read alike, the source gives them in different places.
Key:
COLO741 cells = assay: COLO741 Assay (Cell Titer Glo viability); assay type: cell-based; conditions: Homo sapiens, COLO-741, Example 18; Mean ± SD (n = 3); read-out: Potency (EC50 nM) COLO741
Description: (§1) C0L0741 Assay Protocol. Day 0: C0L0741 cells (ECACC, C0L0741 93052621) are grown to 95% confluence in RPMI, 10% FBS/Pen/Strep/L-Glutamine. Day 1: Plate cells (1500 per well) in 40 μl culturing media using Corning 384-well plates (3570), incubate in standard TC conditions (5% CO2, 95% humidity, 37° C.) for 24 h. Day 2: Dilute each concentration of a half-log serial dilution of compound (1 mM-100 nM) 1:200 in culturing media and add […] (50 μl total volume) of that dilution to designated wells (8 replicates per concentration). The final dilution will be 1000×([…]). Day 4: Remove plate from incubator to cool for 20 minutes to room temperature. Add 40 μl of a 25% Promega Cell Titer Glo solution (diluted 1:3 with room temperature PBS) with Thermo combi or multichannel and incubate for 10 minutes. Read on Perkin-Elmer EnVision with US LUM settings for 0.1 second per well.
(§2) Compounds as shown were tested against various cells lines in vitro according to the methods described herein. Cells are plated in 384-well format in a total volume of 40 μl. Indicated compound concentrations were added 24 hrs after plating the cells. After 48 hrs cell viability was determined using Cell Titer Glo® Luminescent Cell Viability Assay.

H2122 cells = assay: H2122 Assay (Cell Titer Glo viability); assay type: cell-based; conditions: Homo sapiens
Description: Selective toxicity in cell line panel. H2122 Assay Protocol Day 0: H2122 cells (ATCC, H2122 CCL-5985) are grown to 95% confluence in RPMI, 10% FBS/Pen/Strep/L-Glutamine. Day 1: Plate cells (750 per well) in 40 μl culturing media using Corning 384-well plates (3570), incubate in standard TC conditions (5% CO2, 95% humidity, 37 degrees C.) for 24 h. Day 2: Dilute each concentration of a half-log serial dilution of compound (1 mM-100 nM) 1:200 in culturing media and add 10 μl (50 μl total volume) of that dilution to designated wells (8 replicates per concentration). The final dilution will be 1000×([…]). Day 4: Remove plate from incubator to cool for 20 minutes to room temperature. Add 40 μl of a 25% Promega Cell Titer Glo solution (diluted 1:3 with room temperature PBS) with Thermo combi or multichannel and incubate for 10 minutes. Read on Perkin-Elmer EnVision with US LUM settings for 0.1 second per well.
as §2

HeLa cells = assay: HeLa Cytotoxicity Assay (Cell Titer Glo viability); assay type: cell-based; conditions: Homo sapiens, HeLa
Description: HeLa Cytotoxicity Assay Protocol: Day 0: HeLa cells (ATCC, HeLa CCL-2) are grown to 95% confluence in DMEM, 10% FBS/Pen/Strep/L-Glutamine. Day 1: Plate cells (1000 per well) in 40 μl culturing media using Corning 384-well plates (3570), incubate in standard TC conditions (5% CO2, 95% humidity, 37 degrees C.) for 24 hours. Day 2: Dilute each concentration of a half-log serial dilution of compound (1 mM-100 nM) 1:200 in culturing media and add 10 μl (50 μl total volume) of that dilution to designated wells (8 replicates per concentration). The final dilution will be 1000×(1 μM-100 pM). Day 4: Remove plate from incubator to cool for 20 minutes to room temperature. Add 40 μl of a 25% Promega Cell Titer Glo solution (diluted 1:3 with room temperature PBS) with Thermo combi or multichannel and incubate for 10 minutes. Read on Perkin-Elmer EnVision with US LUM settings for 0.1 second per well.
as §2
as §2, with “Known PDE3 inhibitors” for “Compounds”, “shown below” for “shown”

H1563 = H1563 cell line viability (Cell Titer Glo); assay type: cell-based; conditions: Homo sapiens, NCI-H1563; n = 2; read-out: Potency (EC50) H1563
Description: as §2

A549 cells = assay: A549 Cytotoxicity Assay (Cell Titer Glo viability); assay type: cell-based; conditions: Homo sapiens, A549
Description: as §1, with “A549 Cytotoxicity Assay” for “C0L0741 Assay”, “0: A549” for “0: C0L0741”, “cells (ATCC, A549 CCL-185)” for “cells (ECACC, C0L0741 93052621)”, “cells (1000” for “cells (1500”, “10 min.” for “10 minutes.”
A549 Assay Protocol. Day 0: A549 cells (ATCC) are grown in a Triple flask (NUNC) to ˜95% confluence (TrypLE Phenol Red free) and resuspended for dispensing at 25,000 cells/mL of DMEM, 10% FBS/Pen/Strep/L-Glutamine (using the TAP Compact SelecT automated cell culture system). Day 1: Plate cells at 1000 per well in 40 uL media (DMEM/10% FBS/Pen/Strep/L-Glutamine) using Corning 8867BC 384 well plates; incubate in standard TC conditions (5% CO2; 95% humidity, 37° C.) for 24 hours (Compact SelecT). Day 2: Add 100 nL compound per well at dose into 40 uL assay volume using a pin tool (CyBi Well). Pin 100 nL cytotoxic compounds, mitoxantrone (CID 4212) to positive control wells to a final concentration of 10 μM (100 nL 4 mM DMSO stock). Incubate for […] at 37° C. in Liconic incubator, 95% humidity 5% CO2. Day 4: Remove plate from incubator, cool for 15 minutes to room temperature; add 20 μL 50% Promega CellTiterGlo (diluted 1:1 with PBS, pH 7.4) with Thermo Combi. Incubate at room temperature for 5 minutes. Read plates on Perkin-Elmer EnVision with standard luminescence settings for 0.1 sec per well.
as §2
as §2, with “Known PDE3 inhibitors” for “Compounds”, “shown below” for “shown”

PDE3 = conditions: reference value; read-out: PDE3 activity (ref); cited from earlier work
[1] = n = 2, read-out: Potency (EC50) A549
[2] = NCI-H2122, n = 2, read-out: Potency (EC50) H2122
[3] = n = 2, read-out: Potency (EC50) HeLa

O=C1CN2Cc3c(ccc(Cl)c3Cl)NC2=N1 showed an EC50 (COLO741 cells) of 12.2 ± 0.9 nM, an EC50 (H2122 cells; NCI-H2122, Example 18, Mean ± SD (n = 3), read-out: Potency (EC50 nM) H2122) of 17.4 ± 3.5 nM and an EC50 (HeLa cells; Example 18, Mean ± SD (n = 3), read-out: Potency (EC50 nM) HeLa) of 6.8 ± 0.9 nM.
Compound O=C1CCC(c2ccccc2)=NN1 has an EC50 (H1563) of over 10 µM and an EC50 (A549 cells; [1]) of over 10000 nM.
CC1CC(=O)NN=C1c1ccc(N)cc1 (stereo not shown) showed an EC50 (H1563) of over 10 µM and an EC50 (A549 cells; [1]) of over 10000 nM.
In the case of C[C@@H]1CC(=O)NN=C1c1ccc(N)cc1, the EC50 (H1563) is reported as over 10 µM and the EC50 (A549 cells; [1]) is reported as over 10000 nM.
Work on CC1CC(=O)NN=C1c1ccc(N2CCCCC2)c([N+](=O)[O-])c1 (stereo not shown) yielded an EC50 (H2122 cells; [2]) of 1 nM, an EC50 (H1563) of 0.003 µM and an EC50 (A549 cells; [1]) of over 10000 nM. The EC50 (HeLa cells; [3]) was 1 nM.
With CC1CC(=O)NN=C1c1ccc(N2CCOCC2)c([N+](=O)[O-])c1 (stereo not shown) the EC50 (H1563) was 0.003 µM and the EC50 (A549 cells; [1]) was over 10000 nM.
COc1ccc(CC(=O)N2CCN(c3ccc(C4=NNC(=O)CC4C)cc3[N+](=O)[O-])CC2)cc1 (stereo not shown) showed an EC50 (H1563) of over 10 µM and an EC50 (A549 cells; [1]) of over 10000 nM.
CC1CC(=O)NN=C1c1ccc(N)c([N+](=O)[O-])c1 (stereo not shown) showed an EC50 (H1563) of over 10 µM and an EC50 (A549 cells; [1]) of over 10000 nM.
With CC1CC(=O)NN=C1c1ccc(N(C)C)c([N+](=O)[O-])c1 (stereo not shown) the EC50 (H1563) was 0.04 µM and the EC50 (A549 cells; [1]) was over 10000 nM.
In the case of CC1CC(=O)NN=C1c1ccc(NCCO)c([N+](=O)[O-])c1 (stereo not shown), the EC50 (H2122 cells; [2]) is reported as 11 nM, the EC50 (H1563) is reported as 0.04 µM and the EC50 (A549 cells; [1]) is reported as over 10000 nM. It also gave an EC50 (HeLa cells; [3]) of 4 nM.
For CC1CC(=O)NN=C1c1ccc(N)c(N)c1 (stereo not shown), the EC50 (H1563) was over 10 µM and the EC50 (A549 cells; [1]) was over 10000 nM.
CC1CC(=O)NN=C1c1ccc(/N=C\c2ccccc2[N+](=O)[O-])cc1 (stereo not shown) gave an EC50 (H1563) of over 10 µM and an EC50 (A549 cells; [1]) of over 10000 nM.
With O=C(O)Cc1n[nH]c(=O)c2ccccc12 the EC50 (H1563) was over 10 µM and the EC50 (A549 cells; [1]) was over 10000 nM.
With CCN(CC)c1ccc(C(=O)Nc2cccc(OC)c2)cc1[N+](=O)[O-] the EC50 (H1563) was over 10 µM and the EC50 (A549 cells; [1]) was over 10000 nM.
CCN(CC)c1ccc(C#N)cc1[N+](=O)[O-] showed an EC50 (H1563) of over 10 µM and an EC50 (A549 cells; [1]) of over 10000 nM.
CCN(CC)c1ccc(C(=O)O)cc1[N+](=O)[O-] showed an EC50 (H1563) of over 10 µM and an EC50 (A549 cells; [1]) of over 10000 nM.
In the case of O=C1CN2Cc3c(ccc(Cl)c3Cl)N=C2N1 [Anagrelide, reference compound], the IC50 (PDE3) is given as 0.036 µM, the EC50 (A549 cells; known PDE3 inhibitors, Mean (n = 3), read-out: Potency (EC50 nM) A549) is given as over 10000 nM and the EC50 (HeLa cells; known PDE3 inhibitors, Mean (n = 3), read-out: Potency (EC50 nM) HeLa) is given as 8.2 nM.
